This test deals with freeze-injured brain tissue. It is filed as in vivo, rat. Particulars: 6 days after freezing injury. The text has this:
The rats were anaesthetized by the inhalation of isofluorane, and had their heads shaved. The skin was cut open in the mid sagittal plane on the skull. The calvarium was exposed on the left side between the bregma and the lambda. The periostium was detached from the bone, which then was rinsed. Thereafter, great care was taken to remove blood and any fluid from the calvarium as that may impair the subsequent procedure. A probe made of brass, having a cylindric 4 mm long end piece with a diameter of 3 mm, was cooled by immersion in a standardized manner in liquid nitrogen. The cooled probe was thereafter applied for 40 s on the calvarium in between the lambda and bregma, 4 mm lateral to the sagittal mid line. The probe was then removed and the skin wound sutured. The application of the freezing probe resulted transiently in that the brain tissue underlying the exposure site turn frozen. It ought to be stressed that the skull was not opened and no fractures or other signs of gross damage induced. The animals moved afterwards without any obvious problems, behaved normally and ingested food and drinking fluid close to as those untreated, after having recovered from the anaesthesia. Rats (body weight 180-350 g at the start of the experiments), male and female, were supplied with standard pelleted food and tap water prior to and after the brain injury. At the day of injury, the rat were anaesthetized and prepared as described in experiment 2. The freezing probe was applied once for 40 seconds. After suturing the skin wound in the skull and recovered from the anaesthesia, the rats were allowed to move freely. All rats received twice daily for 5 days, starting on the day of surgery, an intravenous injection of 1-10 μg per kg body weight of a synthetic peptide, being a fragment of AF, comprising amino acids 36-51, i.e. composed of 16 amino acids. It was dissolved in saline and prepared freshly prior to each injection. There was no intravenous injection of the peptide on the day of sacrifice, day 6. […] Six days after the freezing injury, the rats were sacrificed and fixed by perfusion as described. […] There were no bleedings in or on the brain. […] The penumbra appeared to be affected by minor oedema. […] Irregularly distributed swellings and beadings of axons and dendrites were sparse. […] There was, however, a variation in the extent of the neuroprotection exerted by the injected peptide.

The mark [1] stands for this setting: peptide i.v. 1-10 μg per kg twice daily for 5 days.
Setting [2] is: peptide i.v. twice daily for 5 days, vs rats of experiment 2.

On to “fragment of AF, comprising amino acids 36-51: synthetic peptide, being a fragment of AF, comprising amino acids 36-51, i.e. composed of 16 amino acids (VCHSKTRSNPENNVGL; listed as Homo sapiens)”, for which, under setting [1], the “bleedings in or on the brain” value is recorded as “no bleedings”; the “oedema in the penumbra” value is on record as “minor oedema”; the “shallow depression of the central parts of the injured area” value is “not marked and in some cases difficult to identify for certain”. Also, under “peptide i.v. 1-10 μg per kg twice daily for 5 days, vs standard pellets and tap water only”, the “extent of brain injury on opening the skull bone” value was “less extensive brain injury”. Moreover, the “irregularly distributed swellings and beadings of axons and dendrites” value (peptide i.v. twice daily for 5 days) is given as “sparse”. Besides, the “proliferation of neural stem and progenitor cells in the SGZ” value (peptide i.v. twice daily for 5 days, hippocampus) was “increased proliferation”. Also, under setting [2], the “occurrence of damaged cells (light microscopy of stained sections)” value is recorded as “less extensive occurrence of damaged cells” and the “residing extravasation of blood (light microscopy)” value is given as “rarely any residing extravasation of blood”. Also, the “astrogliosis in the penumbra region” value (peptide i.v. twice daily for 5 days, vs standard pellets and tap water only) is “not as extensive and wide-spread”.

These data come from patent US20070009575A1, “Novel use of antisecretory factor” (priority 2003, published 2007).
